{"source": "patent US4386103A", "about": "“Dichloroamino acid derivatives useful as potent germicidal and fungicidal agents” (Merck & Co., Inc., priority 1981, dated 1983)", "assay_type_in_all_cases": "cell-based", "key": {"[1]": {"test_system": "Rhizopus oryzae", "assay": "Contact fungicidal screen, Rhizopus oryzae", "settings": "0.1M NaOAc pH 4.6"}, "[2]": {"test_system": "Staphylococcus aureus", "assay": "Contact germicidal screen, Staphylococcus aureus ATCC No. 6538", "procedure": "(§1) The organisms used in the contact germicidal screen are all maintained as stock cultures on nutrient agar […] 4° C. They are transferred and biochemically diagnosed monthly. The five organisms used are: The media used are: […] Overnight cultures of the test organisms are grown in tryptose phosphate broth. After 15-16 hours, the cultures are centrifuged at […] for 15 minutes, and the supernatant replaced with fresh warm (37° C.) media. After two hours of incubation, the absorbance of the culture at 650 nm is determined and diluted with nutrient broth to 1×10^7 colony forming units per ml (using a previous determined standard curve: colony forming units/ml vs. absorbance at 650). The diluted cultures are maintained at 4°-8° C. throughout the screen. The compounds are weighed into sterile 100 ml volumetric flasks, and immediately before screening dissolved in one of the following buffers: 0.1 M NaOAc pH 4.6 or 0.1 M NaH2 PO4 pH 7.0. If solubility poses a problem, 10-30% methanol is used to effect solution. Two denaturing agents are also tested: […] Horse Serum restored with 100 ml distilled water and 10% Trition×100. When used, 2.5 ml of the denaturing agent is mixed with 2.5 ml of double strength test solution thirty minutes before the bacterial suspension is added. The screen is initiated when 0.2 ml of the bacterial suspension is added to 5.0 ml of the test solution contained in a sterile 25 ml glass stoppered flask. At intervals of 0.5, 2.5, 5.0, 10.0 and 15.0 minutes, a loopful of the inoculated test solution is subcultured into 5 ml of sterile nutrient broth and mixed with a vortex, the high dilution serving to stop the action of the compound. All of the subculture tubes are incubated at 37° C. and checked for signs of growth by turbidity at 1, 3, 5 and 7 days. The earliest subculture time at which no growth is present is considered the endpoint and is recorded as the sterilization time. An aliquot of 0.2 ml of the diluted culture is transferred to 5 ml of buffer to simulate 0.2 ml in 5 ml of test solution. (a) Purity: A loopful of the inoculated buffer is streaked onto nutrient agar to check colony morphology and lack of contaminants. (b) Viability: A loopful of the inoculated buffer is subcultured to 5 ml of nutrient broth as in the screen and incubated at 37° C. for 24 hours. (c) Dilution of the Test Solution: A loopful of the test solution is transferred to a 5 ml tube of nutrient broth, and a loopful of the inoculated buffer is transferred to the same tube of broth. […] (d) Purity of Organisms in the Test Solution: After the 15 minute subculture, a loopful of the inoculated test solution is streaked onto nutrient agar to insure that contamination has not occurred during the screen. (e) lack of Bactericidal Activity of Buffers and Other Solvents: Before a buffer or other solvent is used as a diluent, it is screened against the five organisms to insure that the buffer or solvent has no antibacterial activity itself."}, "[3]": {"test_system": "Salmonella typhimurium", "assay": "Contact germicidal screen, Salmonella typhimurium ATCC No. 13311", "procedure": "as §1"}, "[4]": {"settings": "10.0+ PPM, 0.1M NaOAc pH 4.6, screened simultaneously with four other compounds"}, "[5]": {"settings": "291.4 PPM, Triton X100 (10% solution):pH 4.6 buffer 1:1"}, "[6]": {"settings": "291.4 PPM, horse serum:pH 4.6 buffer 1:1"}, "[7]": {"settings": "300 PPM with 50% Horse Serum, 0.1M NaOAc pH 4.6"}, "[8]": {"settings": "300 PPM with 50% Triton X100, 0.1M NaOAc pH 4.6"}, "[9]": {"settings": "1000 PPM with 50% Horse Serum, 0.1M NaOAc pH 4.6"}, "[10]": {"settings": "1024.4 PPM, 0.1M NaH2PO4 pH 7.0"}, "[11]": {"settings": "1042.0 PPM, horse serum:pH 4.6 buffer 1:1"}}, "data": [{"smiles": "CC(C)(COC(=O)CCCC(=O)O)N(Cl)Cl", "note": "[(V), 2-dichloramino-2-methylpropyl-hemiglutarate]", "values": [{"measurement": "Sterilization Time", "setting": "[1]; 10 PPM", "value": 15, "unit": "min"}, {"measurement": "Sterilization Time", "setting": "[1]; 100 PPM", "value": 15, "unit": "min"}, {"measurement": "Sterilization Time", "setting": "[1]; 1000 PPM", "value": 15, "unit": "min"}, {"measurement": "Sterilization Time", "setting": "[2]; [4]", "value": 10.0, "unit": "min"}, {"measurement": "Sterilization Time", "setting": "[2]; 10.0 PPM, 0.1M NaH2PO4 pH 7.0", "value": 15, "unit": "min"}, {"measurement": "Sterilization Time (summary)", "setting": "[2]; 10 PPM, 0.1M NaOAc pH 4.6", "value": 10.0, "unit": "min"}, {"measurement": "Sterilization Time", "setting": "[2]; 10.0 PPM, 0.1M NaOAc pH 4.6", "value": 10.0, "unit": "min"}, {"measurement": "Sterilization Time", "setting": "[2]; 99.1 PPM, 0.1M NaOAc pH 4.6", "value": 2.5, "unit": "min"}, {"measurement": "Sterilization Time (summary)", "setting": "[2]; 100 PPM, 0.1M NaOAc pH 4.6", "value": 2.5, "unit": "min"}, {"measurement": "Sterilization Time", "setting": "[2]; 106.7 PPM, 0.1M NaH2PO4 pH 7.0", "value": 15, "unit": "min"}, {"measurement": "Sterilization Time", "setting": "[2]; [5]", "value": 2.5, "unit": "min"}, {"measurement": "Sterilization Time", "setting": "[2]; [6]", "value": 15, "unit": "min"}, {"measurement": "Sterilization Time (summary)", "setting": "[2]; [7]", "value": 15, "unit": "min"}, {"measurement": "Sterilization Time (summary)", "setting": "[2]; [8]", "value": 2.5, "unit": "min"}, {"measurement": "Sterilization Time", "setting": "[2]; 911.8 PPM, 0.1M NaOAc pH 4.6", "value": 0.5, "unit": "min"}, {"measurement": "Sterilization Time (summary)", "setting": "[2]; [9]", "value": 2.5, "unit": "min"}, {"measurement": "Sterilization Time (summary)", "setting": "[2]; 1000 PPM, 0.1M NaOAc pH 4.6", "value": 0.5, "unit": "min"}, {"measurement": "Sterilization Time", "setting": "[2]; [10]", "value": 5.0, "unit": "min"}, {"measurement": "Sterilization Time", "setting": "[2]; [11]", "value": 2.5, "unit": "min"}, {"measurement": "Sterilization Time", "setting": "[3]; [4]", "value": 2.5, "unit": "min"}, {"measurement": "Sterilization Time", "setting": "[3]; 10.0 PPM, 0.1M NaH2PO4 pH 7.0", "value": 15, "unit": "min"}, {"measurement": "Sterilization Time (summary)", "setting": "[3]; 10 PPM, 0.1M NaOAc pH 4.6", "value": 2.5, "unit": "min"}, {"measurement": "Sterilization Time", "setting": "[3]; 10.0 PPM, 0.1M NaOAc pH 4.6", "value": 5.0, "unit": "min"}, {"measurement": "Sterilization Time", "setting": "[3]; 99.1 PPM, 0.1M NaOAc pH 4.6", "value": 0.5, "unit": "min"}, {"measurement": "Sterilization Time (summary)", "setting": "[3]; 100 PPM, 0.1M NaOAc pH 4.6", "value": 0.5, "unit": "min"}, {"measurement": "Sterilization Time", "setting": "[3]; 106.7 PPM, 0.1M NaH2PO4 pH 7.0", "value": 15, "unit": "min"}, {"measurement": "Sterilization Time", "setting": "[3]; [5]", "value": 0.5, "unit": "min"}, {"measurement": "Sterilization Time", "setting": "[3]; [6]", "value": 10.0, "unit": "min"}, {"measurement": "Sterilization Time (summary)", "setting": "[3]; [7]", "value": 10.0, "unit": "min"}, {"measurement": "Sterilization Time (summary)", "setting": "[3]; [8]", "value": 0.5, "unit": "min"}, {"measurement": "Sterilization Time", "setting": "[3]; 911.8 PPM, 0.1M NaOAc pH 4.6", "value": 0.5, "unit": "min"}, {"measurement": "Sterilization Time (summary)", "setting": "[3]; [9]", "value": 2.5, "unit": "min"}, {"measurement": "Sterilization Time (summary)", "setting": "[3]; 1000 PPM, 0.1M NaOAc pH 4.6", "value": 0.5, "unit": "min"}, {"measurement": "Sterilization Time", "setting": "[3]; [10]", "value": 5.0, "unit": "min"}, {"measurement": "Sterilization Time", "setting": "[3]; [11]", "value": 2.5, "unit": "min"}]}]}
